Laboratory results from patent US20160113265A1, “[…] AND METHODS THEREOF” (Lanodir USA, Inc., priority 2014, published 2016).
Like-named read-outs stand apart in the source and are kept apart here.

Tests used:
Tribolium castaneum = conditions: exposed for 24 Hours at 26.7° C. (80° F.), cited from earlier work
Amyelois transitella = conditions: exposed for 24 Hours at 26.7° C. (80° F.), cited from earlier work
Tribolium confusum = conditions: exposed for 24 Hours at 26.7° C. (80° F.), cited from earlier work
Plodia interpunctella = conditions: exposed for 24 Hours at 26.7° C. (80° F.), cited from earlier work
live pests = assay: Condition of fumigated barge cargo on arrival at destination port (residues, live pests); assay type: in vivo; conditions: approximately two weeks later
Experimental: (§1) A fumigation apparatus, such as the fumigation apparatus 10 (FIGS. 1A-1C), was provided in a barge hatch at a source shipping port that was subsequently loaded with 2,700 metric tons of corn kernels (cargo). A dose of 2,600 g PH3 was injected (approximately 1.03 g PH3/ton cargo) without the use of a turbine (e.g., fan). A PH3 sensor was then used to measure the air quality immediately above the surface of the cargo and the gas concentration the approximately 1 meter below the surface of the cargo (using a probe) at predetermined time intervals.
as §1, with “On the same day as Experiment 1, a fumigation” for “A fumigation”, “at the” for “at a”, “of 2,200” for “of 2,600”, “(approximately 0.814” for “(approximately 1.03”, “cargo) with” for “cargo) without the use of”, “(e.g., fan) to push the PH3. The” for “(e.g., fan). A”
The day following Experiment 1 and Experiment 2, a fumigation apparatus, such as the fumigation apparatus 10 (FIGS. 1A-1C), was provided in a barge hatch at the source shipping port that was subsequently loaded with 2,700 metric tons of corn kernels (cargo). A dose of 1,700 g PH3 was injected (approximately […]) without auxiliary turbine and only with the air flow of the phosphine mixture delivery equipment itself (e.g., approximately 200 m^3/hour). The PH3 sensor was then used to measure the air quality immediately above the surface of the cargo and the gas concentration the approximately 1 meter below the surface of the cargo (using a probe) at predetermined time intervals.
The same day as Experiment 3, and eight days thereafter, nine barges were loaded and fumigated in a similar manner as in Experiment 3 to test repeatability.

Lasioderma serricorne = conditions: exposed for 24 Hours at 26.7° C. (80° F.), cited from earlier work
Carpophilus hemipterus = conditions: exposed for 24 Hours at 26.7° C. (80° F.), cited from earlier work
Orzaephilus surinamensis = conditions: exposed for 24 Hours at 26.7° C. (80° F.), cited from earlier work

P [PH3, phosphine gas]
70-100%: Percent (%) Mortality eggs (Amyelois transitella; 1000 ppm PH3)
94-100%: Percent (%) Mortality pupae (Tribolium confusum; 1000 ppm PH3)
97-100%: Percent (%) Mortality larvae (Orzaephilus surinamensis; 250 ppm PH3)
59-80%: Percent (%) Mortality eggs (Tribolium confusum; 250 ppm PH3)
89-96%: Percent (%) Mortality eggs (Plodia interpunctella; 250 ppm PH3)
100%: Percent (%) Mortality adults (Tribolium castaneum; 250 ppm PH3) | Percent (%) Mortality larvae (Tribolium castaneum; 250 ppm PH3) | Percent (%) Mortality pupae (Tribolium castaneum; 250 ppm PH3) | Percent (%) Mortality adults (Tribolium castaneum; 500 ppm PH3) | Percent (%) Mortality eggs (Tribolium castaneum; 500 ppm PH3) | Percent (%) Mortality larvae (Tribolium castaneum; 500 ppm PH3) | Percent (%) Mortality pupae (Tribolium castaneum; 500 ppm PH3) | Percent (%) Mortality adults (Tribolium castaneum; 1000 ppm PH3) | Percent (%) Mortality eggs (Tribolium castaneum; 1000 ppm PH3) | Percent (%) Mortality larvae (Tribolium castaneum; 1000 ppm PH3) | Percent (%) Mortality pupae (Tribolium castaneum; 1000 ppm PH3) | Percent (%) Mortality adults (Amyelois transitella; 250 ppm PH3) | Percent (%) Mortality larvae (Amyelois transitella; 250 ppm PH3) | Percent (%) Mortality pupae (Amyelois transitella; 250 ppm PH3) | Percent (%) Mortality adults (Amyelois transitella; 500 ppm PH3) | Percent (%) Mortality larvae (Amyelois transitella; 500 ppm PH3) | Percent (%) Mortality pupae (Amyelois transitella; 500 ppm PH3) | Percent (%) Mortality adults (Amyelois transitella; 1000 ppm PH3) | Percent (%) Mortality larvae (Amyelois transitella; 1000 ppm PH3) | Percent (%) Mortality pupae (Amyelois transitella; 1000 ppm PH3) | Percent (%) Mortality adults (Tribolium confusum; 250 ppm PH3) | Percent (%) Mortality larvae (Tribolium confusum; 250 ppm PH3) | Percent (%) Mortality adults (Tribolium confusum; 500 ppm PH3) | Percent (%) Mortality larvae (Tribolium confusum; 500 ppm PH3) | Percent (%) Mortality adults (Tribolium confusum; 1000 ppm PH3) | Percent (%) Mortality eggs (Tribolium confusum; 1000 ppm PH3) | Percent (%) Mortality larvae (Tribolium confusum; 1000 ppm PH3) | Percent (%) Mortality adults (Plodia interpunctella; 250 ppm PH3) | Percent (%) Mortality pupae (Plodia interpunctella; 250 ppm PH3) | Percent (%) Mortality adults (Plodia interpunctella; 500 ppm PH3) | Percent (%) Mortality pupae (Plodia interpunctella; 500 ppm PH3) | Percent (%) Mortality adults (Plodia interpunctella; 1000 ppm PH3) | Percent (%) Mortality larvae (Plodia interpunctella; 1000 ppm PH3) | Percent (%) Mortality pupae (Plodia interpunctella; 1000 ppm PH3) | Percent (%) Mortality adults (Lasioderma serricorne; 250 ppm PH3) | Percent (%) Mortality larvae (Lasioderma serricorne; 250 ppm PH3) | Percent (%) Mortality pupae (Lasioderma serricorne; 250 ppm PH3) | Percent (%) Mortality adults (Lasioderma serricorne; 500 ppm PH3) | Percent (%) Mortality larvae (Lasioderma serricorne; 500 ppm PH3) | Percent (%) Mortality pupae (Lasioderma serricorne; 500 ppm PH3) | Percent (%) Mortality adults (Lasioderma serricorne; 1000 ppm PH3) | Percent (%) Mortality larvae (Lasioderma serricorne; 1000 ppm PH3) | Percent (%) Mortality pupae (Lasioderma serricorne; 1000 ppm PH3) | Percent (%) Mortality adults (Carpophilus hemipterus; 250 ppm PH3) | Percent (%) Mortality eggs (Carpophilus hemipterus; 250 ppm PH3) | Percent (%) Mortality larvae (Carpophilus hemipterus; 250 ppm PH3) | Percent (%) Mortality pupae (Carpophilus hemipterus; 250 ppm PH3) | Percent (%) Mortality adults (Carpophilus hemipterus; 500 ppm PH3) | Percent (%) Mortality eggs (Carpophilus hemipterus; 500 ppm PH3) | Percent (%) Mortality larvae (Carpophilus hemipterus; 500 ppm PH3) | Percent (%) Mortality pupae (Carpophilus hemipterus; 500 ppm PH3) | Percent (%) Mortality adults (Carpophilus hemipterus; 1000 ppm PH3) | Percent (%) Mortality eggs (Carpophilus hemipterus; 1000 ppm PH3) | Percent (%) Mortality larvae (Carpophilus hemipterus; 1000 ppm PH3) | Percent (%) Mortality pupae (Carpophilus hemipterus; 1000 ppm PH3) | Percent (%) Mortality adults (Orzaephilus surinamensis; 250 ppm PH3) | Percent (%) Mortality eggs (Orzaephilus surinamensis; 250 ppm PH3) | Percent (%) Mortality pupae (Orzaephilus surinamensis; 250 ppm PH3) | Percent (%) Mortality adults (Orzaephilus surinamensis; 500 ppm PH3) | Percent (%) Mortality eggs (Orzaephilus surinamensis; 500 ppm PH3) | Percent (%) Mortality larvae (Orzaephilus surinamensis; 500 ppm PH3) | Percent (%) Mortality pupae (Orzaephilus surinamensis; 500 ppm PH3) | Percent (%) Mortality adults (Orzaephilus surinamensis; 1000 ppm PH3) | Percent (%) Mortality eggs (Orzaephilus surinamensis; 1000 ppm PH3) | Percent (%) Mortality larvae (Orzaephilus surinamensis; 1000 ppm PH3) | Percent (%) Mortality pupae (Orzaephilus surinamensis; 1000 ppm PH3)
97-99%: Percent (%) Mortality larvae (Plodia interpunctella; 500 ppm PH3)
96-100%: Percent (%) Mortality eggs (Lasioderma serricorne; 1000 ppm PH3)
free of residues and live pests: cargo condition on arrival (residues and live pests) (live pests; Experiment 1: 2,600 g PH3 in 2,700 metric tons corn kernels, without turbine) | cargo condition on arrival (residues and live pests) (live pests; Experiment 2: 2,200 g PH3 in 2,700 metric tons corn kernels, with a turbine) | cargo condition on arrival (residues and live pests) (live pests; Experiment 3: 1,700 g PH3 in 2,700 metric tons corn kernels, without auxiliary turbine) | cargo condition on arrival (residues and live pests) (live pests; Experiment 4: nine additional barges fumigated as in Experiment 3)
87-94%: Percent (%) Mortality eggs (Lasioderma serricorne; 250 ppm PH3)
90-100%: Percent (%) Mortality eggs (Tribolium castaneum; 250 ppm PH3) | Percent (%) Mortality eggs (Plodia interpunctella; 500 ppm PH3)
20-80%: Percent (%) Mortality eggs (Amyelois transitella; 500 ppm PH3)
89-95%: Percent (%) Mortality pupae (Tribolium confusum; 250 ppm PH3)
95-100%: Percent (%) Mortality larvae (Plodia interpunctella; 250 ppm PH3) | Percent (%) Mortality eggs (Plodia interpunctella; 1000 ppm PH3)
89-98%: Percent (%) Mortality pupae (Tribolium confusum; 500 ppm PH3)
83-100%: Percent (%) Mortality eggs (Tribolium confusum; 500 ppm PH3)
0-78%: Percent (%) Mortality eggs (Amyelois transitella; 250 ppm PH3)
87-96%: Percent (%) Mortality eggs (Lasioderma serricorne; 500 ppm PH3)
